Source: US20170008888A1 (KYORIN PHARMACEUTICAL CO., LTD., priority 2014, published 2017)
Like-named read-outs stand apart in the source and are kept apart here.

Columns and labels:
[1] = biological target: T1, recombinant human ERK5 catalytic domain (Homo sapiens, UniProt Q13164); test: Recombinant human ERK5 radiometric (HotSpot) assay; assay type: biochemical
T1 construct: Recombinant human ERK5 catalytic domain radiometric assays; purchased Reaction Biology, Corp (Malvern, Pa.), which ran the assay as a service
T1 sequence (Q13164 55-347 limits assumed): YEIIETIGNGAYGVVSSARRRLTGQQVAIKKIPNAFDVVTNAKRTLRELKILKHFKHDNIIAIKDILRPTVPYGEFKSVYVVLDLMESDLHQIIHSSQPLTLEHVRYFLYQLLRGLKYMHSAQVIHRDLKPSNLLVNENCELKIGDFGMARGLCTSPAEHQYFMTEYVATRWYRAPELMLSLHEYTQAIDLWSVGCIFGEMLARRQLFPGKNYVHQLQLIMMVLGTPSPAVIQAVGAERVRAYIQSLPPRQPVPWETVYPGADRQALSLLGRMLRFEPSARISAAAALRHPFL
Protocol: In this example, potency of the compounds in recombinant human ERK5 was assayed.
Recombinant human ERK5 catalytic domain radiometric assays were performed by Reaction Biology, Corp (Malvern, Pa.). The HotSpot radiometric assay is based on conventional filter-binding assays (Nature Biotechnology (2011) 29: 1039-1045). Compounds were tested at 20 μM down by ⅓ in a 10 point serial dilution series. Briefly, [γ-33P]-ATP was used as the tracer along with 10 μM cold ATP to label ERK5 in the presence of 20 μM myelin basic protein substrate.

human PBMCs = test: Human PBMC TNF-α response to endotoxin (ELISA); assay type: cell-based; details: 0.1 μg/ml LPS 16 h, read-out: EC50 for the inhibition of the human PBMC TNF-α response to endotoxin, ave. ± S.D.
In short: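 PBMCs at 2e6 cells/ml in RPMI 1640 with 10% charcoal-dextran-treated FBS were pre-treated 1 h at 37 °C with compound (4-point 1:5 dilution from 10 μM). Stimulation with 0.1 μg/ml E. coli 0111:B4 LPS for 16 h; TNF-α measured by ELISA (A450) in 25-fold diluted supernatant.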

ERK5 = biological target: T2, ERK5 (Homo sapiens, UniProt Q13164); test: Probe-based (AX9989 acyl phosphate ATP probe) kinase profiling in Jurkat lysate: ERK5; assay type: binding
T2 construct: screened for activity against several kinases in Jurkat cells; endogenous in cells; host or cells: Jurkat cell lysate
T2 sequence (Q13164 whole entry): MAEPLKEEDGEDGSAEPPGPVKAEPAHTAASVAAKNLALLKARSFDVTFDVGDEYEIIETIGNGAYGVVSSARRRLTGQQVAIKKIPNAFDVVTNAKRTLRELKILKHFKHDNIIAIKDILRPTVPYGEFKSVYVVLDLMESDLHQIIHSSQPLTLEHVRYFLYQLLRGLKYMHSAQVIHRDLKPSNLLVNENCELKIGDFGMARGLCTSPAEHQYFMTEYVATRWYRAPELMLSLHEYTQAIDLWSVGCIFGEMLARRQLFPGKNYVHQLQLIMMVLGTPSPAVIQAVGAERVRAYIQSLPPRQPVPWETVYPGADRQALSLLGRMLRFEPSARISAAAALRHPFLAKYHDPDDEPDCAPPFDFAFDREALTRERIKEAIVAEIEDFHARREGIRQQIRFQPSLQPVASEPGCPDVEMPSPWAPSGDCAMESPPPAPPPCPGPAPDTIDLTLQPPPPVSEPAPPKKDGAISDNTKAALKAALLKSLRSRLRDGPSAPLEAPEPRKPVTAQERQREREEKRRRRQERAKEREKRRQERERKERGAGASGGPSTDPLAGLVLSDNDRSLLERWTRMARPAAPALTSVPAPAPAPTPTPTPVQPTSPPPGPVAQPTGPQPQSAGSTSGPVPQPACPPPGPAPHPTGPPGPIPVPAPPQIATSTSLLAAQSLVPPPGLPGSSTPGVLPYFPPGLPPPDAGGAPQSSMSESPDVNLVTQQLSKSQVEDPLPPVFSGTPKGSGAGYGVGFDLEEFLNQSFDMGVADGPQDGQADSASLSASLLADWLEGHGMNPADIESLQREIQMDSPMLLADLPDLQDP
In short: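 ERK5 IC50 values came from percent inhibition at the screening concentration, measured as loss of LC/MS signal of probe-labelled active-site peptides. Compound was added for 15 min at room temperature to Jurkat lysate (5 mg/ml, 20 mM MnCl2) before labelling with AX9989 ATP acyl phosphate probe at 5 μM.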

AurA = biological target: T3, AurA (Homo sapiens, UniProt O14965); test: Probe-based (AX9989) kinase profiling in Jurkat lysate: AurA; assay type: binding; details: screening concentration 1 μM; read-out: AurA Inhibition % at indicated screening concentration
T3 construct: screened for activity against several kinases in Jurkat cells; endogenous in cells; host or cells: Jurkat cell lysate
T3 sequence (O14965 1-403): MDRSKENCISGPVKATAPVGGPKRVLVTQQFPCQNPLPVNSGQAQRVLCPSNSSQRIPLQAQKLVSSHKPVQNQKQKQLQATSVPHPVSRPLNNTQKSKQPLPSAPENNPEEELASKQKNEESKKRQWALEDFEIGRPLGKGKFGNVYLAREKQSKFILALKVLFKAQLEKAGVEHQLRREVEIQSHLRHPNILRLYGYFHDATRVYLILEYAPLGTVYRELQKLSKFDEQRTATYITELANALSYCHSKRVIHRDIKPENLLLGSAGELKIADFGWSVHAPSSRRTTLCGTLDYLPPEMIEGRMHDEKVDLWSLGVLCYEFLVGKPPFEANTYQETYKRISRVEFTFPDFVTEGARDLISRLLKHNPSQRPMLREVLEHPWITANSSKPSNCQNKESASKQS
In short: (§1)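 Read-out: LC/MS intensity of desthiobiotinylated kinase active-site peptides, percent inhibition normalized to no-compound lysate. Jurkat lysate with 20 mM MnCl2 received compound for 15 min at room temperature, then 5 μM AX9989 probe; duplicates.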

AurB or AurC = test: Probe-based (AX9989) kinase profiling in Jurkat lysate: AurB or AurC; assay type: binding; details: screening concentration 1 μM
In short: as §1

JAK1 = biological target: T4, JAK1 (Homo sapiens, UniProt P23458); test: Probe-based (AX9989) kinase profiling in Jurkat lysate: JAK1; assay type: binding; details: screening concentration 1 μM; read-out: JAK1 Inhibition % at indicated screening concentration
T4 construct: screened for activity against several kinases in Jurkat cells; endogenous in cells; host or cells: Jurkat cell lysate
T4 sequence (P23458 whole entry): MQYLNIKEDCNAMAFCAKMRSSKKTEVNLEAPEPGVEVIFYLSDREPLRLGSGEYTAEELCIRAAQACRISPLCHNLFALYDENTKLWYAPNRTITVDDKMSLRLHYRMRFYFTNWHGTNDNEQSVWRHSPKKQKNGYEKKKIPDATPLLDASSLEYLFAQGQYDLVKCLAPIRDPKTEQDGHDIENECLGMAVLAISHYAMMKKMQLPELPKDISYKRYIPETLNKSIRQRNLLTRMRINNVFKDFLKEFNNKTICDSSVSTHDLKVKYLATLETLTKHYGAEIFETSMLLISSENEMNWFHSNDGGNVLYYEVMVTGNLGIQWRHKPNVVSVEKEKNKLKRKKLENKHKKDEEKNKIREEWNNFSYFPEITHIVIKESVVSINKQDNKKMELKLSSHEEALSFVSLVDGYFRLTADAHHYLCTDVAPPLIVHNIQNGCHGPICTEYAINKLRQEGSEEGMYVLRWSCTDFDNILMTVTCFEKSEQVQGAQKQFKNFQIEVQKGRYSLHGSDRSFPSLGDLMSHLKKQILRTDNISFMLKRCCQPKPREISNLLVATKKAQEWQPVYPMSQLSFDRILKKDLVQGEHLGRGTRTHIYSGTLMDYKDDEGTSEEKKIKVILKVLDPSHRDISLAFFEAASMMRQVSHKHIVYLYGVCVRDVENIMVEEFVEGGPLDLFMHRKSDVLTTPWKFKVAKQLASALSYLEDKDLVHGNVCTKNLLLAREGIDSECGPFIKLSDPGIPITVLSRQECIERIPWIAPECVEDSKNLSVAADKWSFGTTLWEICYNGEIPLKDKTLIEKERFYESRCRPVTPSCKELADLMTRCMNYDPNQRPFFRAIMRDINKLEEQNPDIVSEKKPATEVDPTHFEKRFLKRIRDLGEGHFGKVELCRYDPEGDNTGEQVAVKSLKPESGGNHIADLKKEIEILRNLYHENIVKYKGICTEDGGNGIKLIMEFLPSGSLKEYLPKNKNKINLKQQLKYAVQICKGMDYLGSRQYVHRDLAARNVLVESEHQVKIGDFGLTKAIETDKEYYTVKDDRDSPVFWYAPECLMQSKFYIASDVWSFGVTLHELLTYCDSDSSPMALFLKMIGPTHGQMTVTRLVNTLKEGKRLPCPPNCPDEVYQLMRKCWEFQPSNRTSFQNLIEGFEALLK
In short: as §1

AMPKa1 or AMPKa2 = test: Probe-based (AX9989) kinase profiling in Jurkat lysate: AMPKa1 or AMPKa2; assay type: binding; details: screening concentration 1 μM
In short: as §1

TAO2 = biological target: T5, TAO2 (Homo sapiens, UniProt Q9UL54); test: Probe-based (AX9989) kinase profiling in Jurkat lysate: TAO2; assay type: binding; details: screening concentration 1 μM; read-out: TAO2 Inhibition % at indicated screening concentration
T5 construct: screened for activity against several kinases in Jurkat cells; endogenous in cells; host or cells: Jurkat cell lysate
T5 sequence (Q9UL54 1-1235): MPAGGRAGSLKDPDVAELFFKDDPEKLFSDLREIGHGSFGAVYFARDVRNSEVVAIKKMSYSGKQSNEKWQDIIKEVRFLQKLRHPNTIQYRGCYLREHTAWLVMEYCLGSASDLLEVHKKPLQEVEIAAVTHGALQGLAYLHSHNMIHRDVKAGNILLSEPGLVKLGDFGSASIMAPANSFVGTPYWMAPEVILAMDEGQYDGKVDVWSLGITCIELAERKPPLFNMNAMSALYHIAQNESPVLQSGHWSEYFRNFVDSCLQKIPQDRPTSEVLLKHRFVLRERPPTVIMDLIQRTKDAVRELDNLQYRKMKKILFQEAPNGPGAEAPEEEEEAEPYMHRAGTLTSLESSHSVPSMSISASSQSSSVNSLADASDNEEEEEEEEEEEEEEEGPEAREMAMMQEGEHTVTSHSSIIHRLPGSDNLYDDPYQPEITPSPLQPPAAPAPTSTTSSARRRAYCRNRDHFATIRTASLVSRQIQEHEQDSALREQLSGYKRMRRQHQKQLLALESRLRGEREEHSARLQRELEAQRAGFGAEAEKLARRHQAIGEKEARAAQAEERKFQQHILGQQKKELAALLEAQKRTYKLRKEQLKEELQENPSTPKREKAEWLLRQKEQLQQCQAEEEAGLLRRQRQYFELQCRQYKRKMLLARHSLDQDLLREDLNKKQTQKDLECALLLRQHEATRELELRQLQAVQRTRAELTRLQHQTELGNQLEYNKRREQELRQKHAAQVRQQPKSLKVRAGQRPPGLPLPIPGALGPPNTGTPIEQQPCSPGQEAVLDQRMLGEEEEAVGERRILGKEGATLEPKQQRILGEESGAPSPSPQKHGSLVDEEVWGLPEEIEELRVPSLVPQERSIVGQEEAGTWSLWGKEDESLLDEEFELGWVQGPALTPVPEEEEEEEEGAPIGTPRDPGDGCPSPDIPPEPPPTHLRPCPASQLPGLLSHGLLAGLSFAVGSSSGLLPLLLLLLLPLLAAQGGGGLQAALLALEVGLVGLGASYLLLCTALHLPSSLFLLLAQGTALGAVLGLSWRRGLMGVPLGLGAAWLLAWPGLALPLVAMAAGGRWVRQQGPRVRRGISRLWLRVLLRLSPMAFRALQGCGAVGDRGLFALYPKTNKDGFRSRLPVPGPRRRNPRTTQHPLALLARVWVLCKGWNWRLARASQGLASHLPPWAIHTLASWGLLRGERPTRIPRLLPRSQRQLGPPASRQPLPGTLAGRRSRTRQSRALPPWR
In short: as §1

ACK = biological target: T6, ACK (Homo sapiens, UniProt Q07912); test: Probe-based (AX9989) kinase profiling in Jurkat lysate: ACK; assay type: binding; details: screening concentration 1 μM; read-out: ACK Inhibition % at indicated screening concentration
T6 construct: screened for activity against several kinases in Jurkat cells; endogenous in cells; host or cells: Jurkat cell lysate
T6 sequence (Q07912 whole entry): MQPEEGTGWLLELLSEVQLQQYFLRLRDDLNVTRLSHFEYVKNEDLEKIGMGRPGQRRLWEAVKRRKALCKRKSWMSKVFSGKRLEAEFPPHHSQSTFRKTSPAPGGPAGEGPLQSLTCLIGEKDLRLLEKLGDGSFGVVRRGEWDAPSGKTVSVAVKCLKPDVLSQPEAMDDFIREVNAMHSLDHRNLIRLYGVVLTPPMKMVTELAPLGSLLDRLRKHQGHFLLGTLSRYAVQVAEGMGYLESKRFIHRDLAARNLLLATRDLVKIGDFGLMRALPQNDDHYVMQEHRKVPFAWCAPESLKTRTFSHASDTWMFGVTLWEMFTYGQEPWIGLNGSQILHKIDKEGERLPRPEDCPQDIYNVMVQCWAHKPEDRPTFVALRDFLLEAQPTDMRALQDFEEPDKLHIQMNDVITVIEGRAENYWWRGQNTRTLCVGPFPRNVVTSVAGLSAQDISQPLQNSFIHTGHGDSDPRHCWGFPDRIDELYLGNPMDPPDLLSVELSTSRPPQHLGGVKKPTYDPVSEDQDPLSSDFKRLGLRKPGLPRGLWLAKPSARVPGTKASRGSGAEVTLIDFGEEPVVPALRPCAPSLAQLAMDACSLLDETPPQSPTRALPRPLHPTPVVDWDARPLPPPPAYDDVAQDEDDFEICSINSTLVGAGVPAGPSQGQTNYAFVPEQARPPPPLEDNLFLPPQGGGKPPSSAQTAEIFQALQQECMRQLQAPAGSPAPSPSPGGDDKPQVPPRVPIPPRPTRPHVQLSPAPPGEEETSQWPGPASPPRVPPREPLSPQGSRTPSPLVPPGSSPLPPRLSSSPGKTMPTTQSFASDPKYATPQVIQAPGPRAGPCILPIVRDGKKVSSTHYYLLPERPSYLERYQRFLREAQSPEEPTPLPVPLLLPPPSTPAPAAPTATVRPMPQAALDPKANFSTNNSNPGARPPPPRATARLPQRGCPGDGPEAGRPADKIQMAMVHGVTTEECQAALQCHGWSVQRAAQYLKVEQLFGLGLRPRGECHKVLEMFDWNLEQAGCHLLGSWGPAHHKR
In short: as §1

ABL or ARG = test: Probe-based (AX9989) kinase profiling in Jurkat lysate: ABL or ARG; assay type: binding; details: screening concentration 1 μM
In short: as §1

[2] = biological target: T7, BRD4 bromodomain domain I [BRD4(1)] (Homo sapiens, UniProt O60885); test: BRD4 bromodomain domain 1 inhibition assay (TR-FRET); assay type: binding; details: screening concentration 10 μM
T7 construct: BRD4 bromodomain domain I [BRD4(1)]; purchased Cayman Chemicals
In short: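 0.5% DMSO, in triplicate, using Cayman BRD4(1) TR-FRET protocol with slight modification. 670/620 nm ratio normalized to 10 μM JQ1, with DMSO control set as 0% inhibition.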

[3] = 10 μM ATP, 20 μM myelin basic protein substrate, read-out: rhERK5 IC50

SMILES	IC50 [1, 3]	EC50 (human PBMCs)	also measured
CCOc1cc(C(=O)N2CCC(N3CCOCC3)CC2)ccc1Nc1cc2c(cn1)N(C)C(=O)c1ccccc1N2C [Compound T12]	20 to 50 nM	680 nM	–
CCOc1cc(C(=O)N2CCC[C@H](O)C2)ccc1Nc1cc2c(cn1)N(C)C(=O)c1scnc1N2C [Compound T13]	50 to 200 nM	950 nM	–
CCOc1cc(C(=O)N2CCN(CCOC)CC2)ccc1Nc1cc2c(cn1)N(C)C(=O)c1ccccc1N2C [Compound T16]	20 to 50 nM	920 nM	–
CCOc1cc(C(=O)N2CCN(CCC#N)CC2)ccc1Nc1cc2c(cn1)N(C)C(=O)c1ccccc1N2C [Compound T17]	20 to 50 nM	900 nM	–
CCOc1cc(C(=O)N2CC[C@@H](N3CCOCC3)C2)ccc1Nc1cc2c(cn1)N(C)C(=O)c1ccccc1N2C [Compound T19]	50 to 200 nM	690 nM	–
CCOc1cc(C(=O)N2CC[C@@H](C#N)C2)ccc1Nc1cc2c(cn1)N(C)C(=O)c1ccccc1N2C [Compound T21]	< 20 nM	1280 nM	–
CCOc1cc(C(=O)N2CCC[C@@H](C#N)C2)ccc1Nc1cc2c(cn1)N(C)C(=O)c1ccccc1N2C [Compound T23]	> 200 nM	2390 nM	–
CCOc1cc(C(=O)N2CCC[C@H](C#N)C2)ccc1Nc1cc2c(cn1)N(C)C(=O)c1ccccc1N2C [Compound T24]	> 200 nM	3270 nM	–
CCOc1cc(C(=O)N2CCC(=O)CC2)ccc1Nc1cc2c(cn1)N(C)C(=O)c1ccccc1N2C [Compound T28]	–	480 nM	IC50 [1]: < 20 nM
CCOc1cc(C(=O)N2CCN(C(=O)CN)CC2)ccc1Nc1cc2c(cn1)N(C)C(=O)c1ccccc1N2C [Compound T30]	< 20 nM	770 nM	–
CN1C(=O)c2ccccc2N(C)c2cc(Nc3ccc(C(=O)N4CCC[C@H](O)C4)cc3OCCF)ncc21 [Compound T32]	50 to 200 nM	870 nM	–
CN1C(=O)c2ccccc2N(C)c2cc(Nc3ccc(C(=O)N4CCCNCC4)cc3OCCF)ncc21 [Compound T33]	< 20 nM	670 nM	–
CCOc1cc(C(=O)N2CCN(c3ccccn3)CC2)ccc1Nc1cc2c(cn1)N(C)C(=O)c1ccccc1N2C [Compound T35]	20 to 50 nM	660 nM	–
CCOc1cc(C(=O)N2CCN(c3cccnc3)CC2)ccc1Nc1cc2c(cn1)N(C)C(=O)c1ccccc1N2C [Compound T36]	< 20 nM	110 nM	–
CCOc1cc(C(=O)N2CCC(N(C)CCO)CC2)ccc1Nc1cc2c(cn1)N(C)C(=O)c1ccccc1N2C [Compound T38]	20 to 50 nM	320 nM	–
CCCOc1cc(C(=O)N2CCC[C@H](O)C2)ccc1Nc1cc2c(cn1)N(C)C(=O)c1ccccc1N2C [Compound T39]	> 200 nM	920 nM	–
CCCOc1cc(C(=O)N2CCCNCC2)ccc1Nc1cc2c(cn1)N(C)C(=O)c1ccccc1N2C [Compound T40]	20 to 50 nM	490 nM	–
CCCOc1cc(C(=O)N2CCC(N3CCN(C)CC3)CC2)ccc1Nc1cc2c(cn1)N(C)C(=O)c1ccccc1N2C [Compound T41]	20 to 50 nM	370 nM	–
CCOc1cc(C(=O)N2CCC[C@H](OP(=O)(O)O)C2)ccc1Nc1cc2c(cn1)N(C)C(=O)c1ccccc1N2C [Compound T43]	20 to 50 nM	> 10000 nM	–
CCOc1cc(C(=O)N2CCC[C@H](OC(=O)CN(C)C)C2)ccc1Nc1cc2c(cn1)N(C)C(=O)c1ccccc1N2C [Compound T44]	20 to 50 nM	650 nM	–
CCOc1cc(C(=O)N2CCC(N3CCCNCC3)CC2)ccc1Nc1cc2c(cn1)N(C)C(=O)c1ccccc1N2C [Compound T45]	< 20 nM	1480 nM	–
CCOc1cc(C(=O)N2CCOCC2)ccc1Nc1cc2c(cn1)N(C)C(=O)c1ccccc1O2 [Compound T81, 3-((2-ethoxy-4-(morpholine-4-carbonyl)phenyl)amino)-11-methylbenzo[f]pyrido[4,3-b][1,4]oxazepin-10(11H)-one]	–	–	IC50 (ERK5; calculated from percent inhibition and screening concentration, Jurkat lysate, AX9989 probe): 101 to 500 nM; inhibition at 1 µM (ERK5; screening concentration 1 μM, read-out: ERK5 Inhibition % at indicated screening concentration): 75 to 90%; inhibition at 1 µM (AurA): ≤ 35%; AurB or AurC Inhibition % at indicated screening concentration (AurB or AurC): E (E is ≦35%); inhibition at 1 µM (JAK1): ≤ 35%; AMPKa1 or AMPKa2 Inhibition % at indicated screening concentration (AMPKa1 or AMPKa2): E (E is ≦35%); inhibition at 1 µM (TAO2): ≤ 35%; inhibition at 1 µM (ACK): ≤ 35%; ABL or ARG Inhibition % at indicated screening concentration (ABL or ARG): E (E is ≦35%); inhibition at 10 µM [2]: < 70%
